# Reference: patent publication US20250011289A1, “1H-BENZO[B]AZEPIN-2(3H)-ONE COMPOUNDS, COMPOSITIONS AND METHODS OF TREATING CANCER” (Chengdu Anticancer Bioscience, Ltd., priority 2021, published 2025)
# Read-outs that look alike come from different tables or passages of the source.
# Key:
# [1] = system: RPE-Neo or RPE-MYC or RPE-MYC expressing an EGFP-Histone 2B fusion protein; assay: Phenotypic screening assay (arrest in mitosis or change in DNA content, IN-Cell Analyzer); format: cell-based; details: compounds at 20 nM to 20 μM, analysed 24, 48 or 72 hours after initiation of treatment
# Description: (§1) Screening was conducted as described before (Li et al. 2019). Briefly, RPE-Neo or RPE-MYC or RPE-MYC expressing an EGFP-Histone 2B fusion protein were passaged as batches of 96-well plates, 18-24 hours before exposure to the chemical compounds of the present disclosure at concentrations from 20 nM to 20 μM. At 24, 48 or 72 hours after initiation of treatment, cells were analyzed for either an arrest in mitosis or a change in DNA content by GE 1N-Cell Analyzer 2000. MTT assays of cellular proliferation were performed as previously described (Li et al. 2019).
# (§2) As set forth in table 2 below, an values of greater than or equal to 1 nM and less than or equal to 1.0 μM is marked “A”; a value greater than 1.00 μM and less than or equal to 10.0 μM is marked “B”; a value greater than 10.0 μM and less than or equal to 30.0 μM is marked “C”; and a value greater than 30.0 μM and less than 1000 μM is marked “D.”
# [2] = system: RPE-Neo or RPE-MYC cells; assay: MTT assay of cellular proliferation; format: cell-based; details: compounds at 20 nM to 20 μM; read-out: Min. Effective conc. for Proliferative arrest (>50%)
# Description: Human cancer cell lines were obtained from ATCC and cultured in DMEM (Gibco, Cleveland. TN, USA) supplemented with 5% fetal bovine serum (Gibco), penicillin (100 U/mL)-streptomycin (100 μg/mL) (Gibco, Cat. No. 15140-122), 2 mM L-glutamine (Gibco, 200 mM solution, Cat. No. 25030081), and 1 mM sodium pyruvate (Gibco, 100 mM solution, Cat. No. 11360070) at 37° C. in a humidified incubator that was maintained at 5% CO2.
# as §1, §2
# [3] = read-out: Min. Effective conc. for Along with Cell Death
# [4] = read-out: Min. Effective conc. for Mitotic Arrest (>5%)
# [5] = read-out: Min. Effective conc. for Polyploidy (≥5%)
Compound,"minimal effective concentration [1, 3]","minimal effective concentration [1, 4]","minimal effective concentration [1, 5]",minimal effective concentration [2]
"C#Cc1ccc2c(c1)N(Cc1ccc(C)c(F)c1)C(=O)CC(c1nnc(C3CC3)o1)=C2Br [Compound 20-20, 5-bromo-4-(5-cyclopropyl-1,3,4-oxadiazol-2-yl)-8-ethynyl-1-(3-fluoro-4-methylbenzyl)-1,3-dihydro-2H-benzo[b]azepin-2-one]",0.001 to 1 µM,0.001 to 1 µM,0.001 to 1 µM,0.001 to 1 µM
"Cc1noc(C2=C(Br)c3ccccc3N(Cc3ccc(C)c(F)c3)C(=O)C2)n1 [Compound 18-1, 5-bromo-1-(3-fluoro-4-methylbenzyl)-4-(3-methyl-1,2,4-oxadiazol-5-yl)-1,3-dihydro-2H-benzo[b]azepin-2-one]",0.001 to 1 µM,0.001 to 1 µM,0.001 to 1 µM,0.001 to 1 µM
"Cc1ccc(CN2C(=O)CC(c3nnc(N)s3)=C(Cl)c3ccccc32)cc1F [Compound 15-1, 4-(5-amino-1,3,4-thiadiazol-2-yl)-5-chloro-1-(3-fluoro-4-methylbenzyl)-1,3-dihydro-2H-benzo[b]azepin-2-one]",0.001 to 1 µM,0.001 to 1 µM,0.001 to 1 µM,0.001 to 1 µM
"Cc1ccc(CN2C(=O)CC(c3cnco3)=C(Br)c3ccc(Br)cc32)cc1F [Compound 8-3, 5,8-dibromo-1-(3-fluoro-4-methylbenzyl)-4-(oxazol-5-yl)-1,3-dihydro-2H-benzo[b]azepin-2-one]",0.001 to 1 µM,0.001 to 1 µM,0.001 to 1 µM,0.001 to 1 µM
"Cc1ccc(CN2C(=O)CC(c3nnc(N)s3)=C(Br)c3ccccc32)cc1F [Compound 15-2, 4-(5-amino-1,3,4-thiadiazol-2-yl)-5-bromo-1-(3-fluoro-4-methylbenzyl)-1,3-dihydro-2H-benzo[b]azepin-2-one]",0.001 to 1 µM,0.001 to 1 µM,0.001 to 1 µM,0.001 to 1 µM
"Cc1ccc(CN2C(=O)CC(c3ccon3)=C(Cl)c3ccccc32)cc1F [Compound 13-1, 5-chloro-1-(3-fluoro-4-methylbenzyl)-4-(isoxazol-3-yl)-1,3-dihydro-2H-benzo[b]azepin-2-one]",0.001 to 1 µM,0.001 to 1 µM,0.001 to 1 µM,0.001 to 1 µM
"Cc1ccc(CN2C(=O)CC(c3nnc(C4CC4)o3)=C(Br)c3ccc(F)cc32)cc1F [Compound 20-7, 5-bromo-4-(5-cyclopropyl-1,3,4-oxadiazol-2-yl)-8-fluoro-1-(3-fluoro-4-methylbenzyl)-1,3-dihydro-2H-benzo[b]azepin-2-one]",0.001 to 1 µM,0.001 to 1 µM,0.001 to 1 µM,0.001 to 1 µM
"Cc1ccc(CN2C(=O)CC(CN3CCCC3)=C(Br)c3ccccc32)cc1F [Compound 45, 5-bromo-1-(3-fluoro-4-methylbenzyl)-4-(pyrrolidin-1-ylmethyl)-1,3-dihydro-2H-benzo[b]azepin-2-one]",1 to 10 µM,1 to 10 µM,1 to 10 µM,1 to 10 µM
"COc1ccc(CN2C(=O)CC(c3nnc(C4CC4)o3)=C(Br)c3ccccc32)cc1F [Compound 20-25, 5-bromo-4-(5-cyclopropyl-1,3,4-oxadiazol-2-yl)-1-(3-fluoro-4-methoxybenzyl)-1,3-dihydro-2H-benzo[b]azepin-2-one]",0.001 to 1 µM,0.001 to 1 µM,0.001 to 1 µM,0.001 to 1 µM
"Cc1ccc(CN2C(=O)CC(CO[C@@H]3CCOC3)=C(Br)c3ccccc32)cc1F [Compound 44-5, (R)-5-bromo-1-(3-fluoro-4-methylbenzyl)-4-(((tetrahydrofuran-3-yl)oxy)methyl)-1,3-dihydro-2H-benzo[b]azepin-2-one]",0.001 to 1 µM,0.001 to 1 µM,0.001 to 1 µM,0.001 to 1 µM
"Cc1ccc(CN2C(=O)CC(c3cnco3)=C(Br)c3ccc(O)cc32)cc1F [Compound 8-10, 5-bromo-1-(3-fluoro-4-methylbenzyl)-8-hydroxy-4-(oxazol-5-yl)-1,3-dihydro-2H-benzo[b]azepin-2-one]",0.001 to 1 µM,0.001 to 1 µM,0.001 to 1 µM,0.001 to 1 µM
"Cc1nnc(C2=C(Br)c3ccccc3N(Cc3ccc(C)c(F)c3)C(=O)C2)o1 [Compound 20-2, 5-bromo-1-(3-fluoro-4-methylbenzyl)-4-(5-methyl-1,3,4-oxadiazol-2-yl)-1,3-dihydro-2H-benzo[b]azepin-2-one]",0.001 to 1 µM,0.001 to 1 µM,0.001 to 1 µM,0.001 to 1 µM
CC1=C(c2nnc(C3CC3)o2)CC(=O)N(Cc2ccc(C)c(F)c2)c2ccccc21 [Compound 20-30],0.001 to 1 µM,0.001 to 1 µM,0.001 to 1 µM,0.001 to 1 µM
"Cc1ccc(CN2C(=O)CC(c3nnc(C4CC4)o3)=C(Br)c3c(F)cccc32)cc1F [Compound 20-16, 5-bromo-4-(5-cyclopropyl-1,3,4-oxadiazol-2-yl)-6-fluoro-1-(3-fluoro-4-methylbenzyl)-1,3-dihydro-2H-benzo[b]azepin-2-one]",0.001 to 1 µM,0.001 to 1 µM,0.001 to 1 µM,0.001 to 1 µM
"Cc1ccc(CN2C(=O)CC(CO[C@H]3CCOC3)=C(Br)c3ccccc32)cc1F [Compound 44-6, (S)-5-bromo-1-(3-fluoro-4-methylbenzyl)-4-(((tetrahydrofuran-3-yl)oxy)methyl)-1,3-dihydro-2H-benzo[b]azepin-2-one]",0.001 to 1 µM,0.001 to 1 µM,0.001 to 1 µM,0.001 to 1 µM
"Cc1ccc(CN2C(=O)CC(COCC3CCCO3)=C(Br)c3ccccc32)cc1F (stereo not drawn) [Compound 44-4, 5-bromo-1-(3-fluoro-4-methylbenzyl)-4-(((tetrahydrofuran-2-yl)methoxy)methyl)-1,3-dihydro-2H-benzo[b]azepin-2-one]",1 to 10 µM,1 to 10 µM,1 to 10 µM,1 to 10 µM
"Cc1ccc2c(c1)N(Cc1ccc(C)c(F)c1)C(=O)CC(c1cnco1)=C2Br [Compound 8-13, 5-bromo-1-(3-fluoro-4-methylbenzyl)-8-methyl-4-(oxazol-5-yl)-1,3-dihydro-2H-benzo[b]azepin-2-one]",0.001 to 1 µM,0.001 to 1 µM,0.001 to 1 µM,0.001 to 1 µM
"CCOCC1=C(Cl)c2ccccc2N(Cc2ccc(C)c(F)c2)C(=O)C1 [Compound 24-2, 5-chloro-4-(ethoxymethyl)-1-(3-fluoro-4-methylbenzyl)-1,3-dihydro-2H-benzo[b]azepin-2-one]",0.001 to 1 µM,0.001 to 1 µM,0.001 to 1 µM,0.001 to 1 µM
"COCC1=C(OC)c2ccccc2N(Cc2ccc(C)c(F)c2)C(=O)C1 [Compound 28-1, 1-(3-fluoro-4-methylbenzyl)-5-methoxy-4-(methoxymethyl)-1,3-dihydro-2H-benzo[b]azepin-2-one]",1 to 10 µM,1 to 10 µM,1 to 10 µM,1 to 10 µM
"Cc1ccc(S(=O)(=O)N2CCC(c3nnc(C4CC4)o3)=C(Br)c3ccccc32)cc1 [Compound 34-4, 2-(5-bromo-1-tosyl-2,3-dihydro-1H-benzo[b]azepin-4-yl)-5-cyclopropyl-1,3,4-oxadiazole]",1 to 10 µM,1 to 10 µM,1 to 10 µM,1 to 10 µM
"Cc1cc(F)c(CN2C(=O)CC(c3nnc(C4CC4)o3)=C(Br)c3ccccc32)cc1F [Compound 20-28, 5-bromo-4-(5-cyclopropyl-1,3,4-oxadiazol-2-yl)-1-(2,5-difluoro-4-methylbenzyl)-1,3-dihydro-2H-benzo[b]azepin-2-one]",0.001 to 1 µM,0.001 to 1 µM,0.001 to 1 µM,0.001 to 1 µM
